Measurements from patent publication US8614188B2, “Inhibiting collagen-induced platelet aggregation and activation with peptide variants” (University of Massachusetts, priority 2006, dated 2013).

How the values were obtained:
cells = assay: Toxicity of DMSO to cells; format: cell-based
Experimental: (§1) The CP and CP-A peptides were noted to be hydrophobic and insoluble in aqueous solutions. A variety of solvents and carriers were tested to improve their solubility. Solvents and/or carriers that improve solubility of CP and CP-A included, but were not limited to, ethanol, dimethylsulphoxide (DMSO), dimethyl formamide (DMF), and trifluoracetic acid (TFA). When using DMSO as a solvent, the final concentration used in the platelet function experiments ranged from 0.063%-0.250%. DMSO concentrations greater than 1% were observed toxic to cells. Stock solutions of CP and CP-A were prepared in DMSO and used at a […] dilution.

platelets = assay: Collagen-induced platelet activation, whole blood flow cytometry (P-Selectin, PAC-1); format: cell-based, human; details: for concentration-dependent effect on collagen-induced platelet activation: 50, 100 or 200 μM
Experimental: Peripheral blood was drawn from healthy, nonsmoking adult volunteers (IRB-approved written informed consent) who had not received any platelet inhibitory drugs in the preceding 2 weeks. After discarding the first 2 mL, blood was drawn into a 3.2% sodium citrate Vacutainer® (Becton Dickinson, Franklin Lakes. N.J., USA).
Flow cytometric analysis may be used to evaluate platelet function, and/or the assessment of platelet activation. Michelson, A. D., “Evaluation of platelet function by flow cytometry” Pathophysiol. Haemost. Thromb. 35:67-82 (2006). In the absence of an added exogenous platelet agonist, whole blood flow cytometry can determine the activation state of circulating platelets, as judged by the binding of an activation-dependent monoclonal antibody. In addition to this assessment of platelet function in vivo, inclusion of an exogenous agonist in the assay enables analysis of the reactivity of circulating platelets in vitro. In the latter application, whole blood flow cytometry is a physiological assay of platelet function in that an agonist results in a specific functional response by the platelets: a change in the surface expression of a physiological receptor (or other antigen or bound ligand), as determined by a change in the binding of a monoclonal antibody.
Markers of platelet activation include activation-dependent changes in the glycoprotein IIb/IIIa complex and exposure of granule membrane proteins. The platelet glycoprotein IIb/IIIa complex is believed involved with biochemical events leading to activation, and may express an activation dependent epitope recognized by monoclonal antibody PAC-1. Shattil et al., “Changes in the platelet membrane glycoprotein IIb/IIIa complex during platelet activation” J. Biol. Chem. 260:11107-11114 (1985). P-Selectin (GMP-140, PADGEM, CD-62P) is now known to be a component of the alpha-granule membrane and is therefore exposed on the surface of the platelet upon activation, due to the fusing of the vesicle with the outer membrane. These two markers of platelet activation were used to study the effect of peptide on collagen-induced platelet activation using whole blood flow cytometry.
The final concentration of a peptide used in incubation (i.e., for example, the GPVI CP) was 100 μM. The following antibodies (and appropriately matched isotype control antibodies) were used for flow cytometry analysis: fluorescein isothiocyanate (FITC)-conjugated PAC-1 monoclonal antibody which recognizes the activated conformation of glycoprotein (GP) IIb/IIIa; phycoerythrin (PE)-conjugated anti-CD62P monoclonal antibody directed against P-Selectin; and PECy7-conjugated anti-CD41 monoclonal antibody which recognizes the α-subunit of the CD41/CD61 complex (GPIIb-IIIa) (BD-Pharmingen, San-Diego, Calif., USA; and/or DAKO, Carpinteria, Calif., USA).
Prior to flow cytometric experiments, PE-conjugated anti-CD62P and anti-CD41 antibodies were mixed at a ratio of 1:2.5 (volume/volume) and diluted at a ratio of 1:9 (volume/volume) with 10 mmol/L HEPES, 0.15 mol/L NaCl, pH 7.4, containing 1% bovine serum albumin (BSA) and 15 mmol/L sodium azide. Collagen was purchased from Chronolog Corp (Havertown, Pa., USA). The stock 1 mg/mL collagen solution was diluted at a ratio of 1:10 (volume/volume) with 10 mmol/L HEPES, 0.15 mol/L NaCl, pH 7.4. Stock solutions of GPVI core peptide in DMSO (or pure DMSO as a “vehicle” control) were diluted at a ratio of 1:10 (volume/volume) with 10 mmol/L HEPES, 0.15 mol/L NaCl, pH 7.4, immediately before the addition of blood samples.
Flow cytometric analysis: aliquots of citrated whole blood were incubated at 37° C. for 60 min with vehicle (DMSO; in a final concentrations of 0.063, 0.125 or 0.250%) or a preliminarily diluted GPVI core peptide in a final concentration of 100 μM. Then, the aliquoted samples were stimulated with 20 μg/mL collagen for 5 minutes at 37° C. in the presence of monoclonal antibody FITC-PAC-1. […]

[1] = Solubility of peptides in aqueous solutions and solvents; format: physicochemical; details: solubility improved by ethanol, DMSO, DMF, TFA
Experimental: as §1

| solubility in aqueous solutions [1] | Molecule | DMSO concentration observed toxic to cells (cells) | reduction in the expression of the platelet activation markers compared to vehicle control (platelets; 100 μM peptide, whole blood preincubated 60 min 37° C., 20 μg/mL collagen, % P-Selectin-positive platelets, P-Selectin and PAC-1 MFI) | concentration-dependent effect on collagen-induced platelet activation (platelets; % P-Selectin-positive platelets, P-Selectin and PAC-1 MFI, listed as GPVI core peptide) | concentration-dependent effect on collagen-induced platelet activation (platelets; % P-Selectin-positive platelets, P-Selectin and PAC-1 MFI, listed as GPVI-CP) | inhibition of platelet activation (platelets; Examples 4 and 5) | expression of the platelet activation markers as compared to vehicle control (platelets; 100 μM peptide, 20 μg/mL collagen) | collagen-mediated platelet activation, percentage of P-Selectin-positive platelets (platelets; 100 μM, FIG. 8A) | collagen-mediated platelet activation, P-Selectin mean fluorescence surface expression intensity (platelets; 100 μM, FIG. 8B) | collagen-mediated platelet activation, PAC-1 mean fluorescence surface expression intensity (platelets; 100 μM, FIG. 8C) |
| --- | --- | --- | --- | --- | --- | --- | --- | --- | --- | --- |
| – | C[S+](C)[O-] [DMSO, dimethylsulphoxide] | greater than 1% | – | – | – | – | – | – | – | – |
| insoluble | H-GNLVRICLGAV-OH [Peptide 2, NH2-Gly-Asn-Leu-Val-Arg-Ile-Cys-Leu-Gly-Ala-Val-OH] | – | 32%-59% | inhibited platelet activation in a concentration-dependent manner | concentration-dependent effect | 30-60% | – | – | – | – |
| insoluble | H-GNLVAICLGAV-OH [CP-A, NH2-Gly-Asn-Leu-Val-Ala-Ile-Cys-Leu-Gly-Ala-Val-OH, reference compound] | – | – | – | – | – | did not lead to any significant differences | absence of effect | absence of effect | absence of effect |
